Test results published in publication PMC10648541, “Design, Synthesis, and Antiproliferative Activity of Selective Histone Deacetylases 6 Inhibitors Containing a Tetrahydropyridopyrimidine Scaffold” (Molecules, 2023).
pIC50: −log10 of the molar value.

Assays:
HDAC1 = target: T1, HDAC1 (Homo sapiens, UniProt Q13547); test: In vitro HDAC enzyme assay (Reaction Biology Corporation), HDAC1; format: biochemical; conditions: Table 1; duplicate, SD < 15%
T1 construct: purchased Reaction Biology Corporation
T1 sequence (Q13547 whole entry): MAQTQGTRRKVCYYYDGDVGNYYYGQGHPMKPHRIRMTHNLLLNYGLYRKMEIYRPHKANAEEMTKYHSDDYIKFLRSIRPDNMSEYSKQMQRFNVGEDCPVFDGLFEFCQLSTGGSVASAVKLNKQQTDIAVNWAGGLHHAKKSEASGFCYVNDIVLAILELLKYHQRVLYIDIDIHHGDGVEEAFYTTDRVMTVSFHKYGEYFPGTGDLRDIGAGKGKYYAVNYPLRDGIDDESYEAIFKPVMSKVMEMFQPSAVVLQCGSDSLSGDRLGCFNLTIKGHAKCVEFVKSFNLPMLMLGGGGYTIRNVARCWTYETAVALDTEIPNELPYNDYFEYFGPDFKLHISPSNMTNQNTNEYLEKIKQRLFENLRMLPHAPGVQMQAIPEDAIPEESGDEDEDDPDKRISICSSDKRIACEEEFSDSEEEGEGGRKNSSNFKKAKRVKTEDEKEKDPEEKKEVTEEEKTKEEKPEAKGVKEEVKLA

RPMI-8226 = test: Antiproliferative assay (Alamar blue, 72 h), RPMI-8226; format: cell-based, human; conditions: Homo sapiens, RPMI-8226 cells, three independent experiments, SD < 10%, read-out: Antiproliferative effect IC50, RPMI-8226
Description: The cells were cultured in IMDM (Gibco) medium with 20% FBS (Lonsera), 100 U/mL penicillin, and 100 µg/mL streptomycin (Solarbio). All cells were maintained at 37 °C in a humidified atmosphere of 5% CO2 in air. Briefly, 100 µL cell suspension or completed medium was plated into a 96-well plate. Compounds were added and incubated for 72 h. Then, 22 µL Alamar blue solution (1 mM) was pipetted into each well of a 96-well plate, and the plate was incubated for an additional 5~6 h. The absorbance (OD) was read at 530/590 nm. Data were normalized to vehicle groups (DMSO) and represented as the means of three independent measurements with standard errors of <20%. The IC50 values were calculated using Prism 5.0.

[1] = tested on: 59 different tumor cell lines; test: NCI-60 antiproliferative evaluation, whole panel; format: cell-based; conditions: 10 μM, of 59 tumor cell lines
Excerpt: (§1) Then, 8f was submitted to NCI for antiproliferative evaluation against 59 different tumor cell lines. The cancer types of the NCI-60 program include leukemia, non-small cell lung cancer (NSCLC), colon cancer, CNS cancer, melanoma, ovary cancer, renal cancer, prostate cancer, and breast cancer.

K-562 = test: NCI-60 antiproliferative screening, K-562; format: cell-based; conditions: Homo sapiens, K562, K-562 (Leukemia), read-out: Inhibition% values at 10 μM concentration
Excerpt: as §1

A549/ATCC = test: NCI-60 antiproliferative screening, A549/ATCC; format: cell-based; conditions: Homo sapiens, A549/ATCC (Non-Small Cell Lung Cancer), read-out: Inhibition% values at 10 μM concentration
Excerpt: as §1

EKVX = test: NCI-60 antiproliferative screening, EKVX; format: cell-based; conditions: Homo sapiens, EKVX (Non-Small Cell Lung Cancer), read-out: Inhibition% values at 10 μM concentration
Excerpt: as §1

HOP-62 = test: NCI-60 antiproliferative screening, HOP-62; format: cell-based; conditions: Homo sapiens, HOP-62 (Non-Small Cell Lung Cancer), read-out: Inhibition% values at 10 μM concentration
Excerpt: as §1

NCI-H226 = test: NCI-60 antiproliferative screening, NCI-H226; format: cell-based; conditions: Homo sapiens, NCI-H226 (Non-Small Cell Lung Cancer), read-out: Inhibition% values at 10 μM concentration
Excerpt: as §1

NCI-H23 = test: NCI-60 antiproliferative screening, NCI-H23; format: cell-based; conditions: Homo sapiens, NCI-H23 (Non-Small Cell Lung Cancer), read-out: Inhibition% values at 10 μM concentration
Excerpt: as §1

NCI-H522 = test: NCI-60 antiproliferative screening, NCI-H522; format: cell-based; conditions: Homo sapiens, NCI-H522 (Non-Small Cell Lung Cancer), read-out: Inhibition% values at 10 μM concentration
Excerpt: as §1

HCC-2998 = test: NCI-60 antiproliferative screening, HCC-2998; format: cell-based; conditions: Homo sapiens, HCC-2998 (Colon Cancer), read-out: Inhibition% values at 10 μM concentration
Excerpt: as §1

KM12 = test: NCI-60 antiproliferative screening, KM12; format: cell-based; conditions: Homo sapiens, KM12 (Colon Cancer), read-out: Inhibition% values at 10 μM concentration
Excerpt: as §1

SNB-75 = test: NCI-60 antiproliferative screening, SNB-75; format: cell-based; conditions: Homo sapiens, SNB-75 (CNS Cancer), read-out: Inhibition% values at 10 μM concentration
Excerpt: as §1

M14 = test: NCI-60 antiproliferative screening, M14; format: cell-based; conditions: Homo sapiens, M14 (Melanoma), read-out: Inhibition% values at 10 μM concentration
Excerpt: as §1

SK-MEL-5 = test: NCI-60 antiproliferative screening, SK-MEL-5; format: cell-based; conditions: Homo sapiens, SK-MEL-5 (Melanoma), read-out: Inhibition% values at 10 μM concentration
Excerpt: as §1

UACC-257 = test: NCI-60 antiproliferative screening, UACC-257; format: cell-based; conditions: Homo sapiens, read-out: Inhibition% values at 10 μM concentration
Excerpt: as §1

UACC-62 = test: NCI-60 antiproliferative screening, UACC-62; format: cell-based; conditions: Homo sapiens, UACC-62 (Melanoma), read-out: Inhibition% values at 10 μM concentration
Excerpt: as §1

OVCAR-3 = test: NCI-60 antiproliferative screening, OVCAR-3; format: cell-based; conditions: Homo sapiens, OVCAR-3 (Ovarian Cancer), read-out: Inhibition% values at 10 μM concentration
Excerpt: as §1

OVCAR-4 = test: NCI-60 antiproliferative screening, OVCAR-4; format: cell-based; conditions: Homo sapiens, OVCAR-4 (Ovarian Cancer), read-out: Inhibition% values at 10 μM concentration
Excerpt: as §1

OVCAR-8 = test: NCI-60 antiproliferative screening, OVCAR-8; format: cell-based; conditions: Homo sapiens, OVCAR-8 (Ovarian Cancer), read-out: Inhibition% values at 10 μM concentration
Excerpt: as §1

786-0 = test: NCI-60 antiproliferative screening, 786-0; format: cell-based; conditions: Homo sapiens, 786-0 (Renal Cancer), read-out: Inhibition% values at 10 μM concentration
Excerpt: as §1

SN12C = test: NCI-60 antiproliferative screening, SN12C; format: cell-based; conditions: Homo sapiens, SN12C (Renal Cancer), read-out: Inhibition% values at 10 μM concentration
Excerpt: as §1

UO-31 = test: NCI-60 antiproliferative screening, UO-31; format: cell-based; conditions: Homo sapiens, UO-31 (Renal Cancer), read-out: Inhibition% values at 10 μM concentration
Excerpt: as §1

MCF7 = test: NCI-60 antiproliferative screening, MCF7; format: cell-based; conditions: Homo sapiens, MCF7 (Breast Cancer), read-out: Inhibition% values at 10 μM concentration
Excerpt: as §1

MDA-MB-231/ATCC = test: NCI-60 antiproliferative screening, MDA-MB-231/ATCC; format: cell-based; conditions: Homo sapiens, MDA-MB-231/ATCC (Breast Cancer), read-out: Inhibition% values at 10 μM concentration
Excerpt: as §1

HS 578T = test: NCI-60 antiproliferative screening, HS 578T; format: cell-based; conditions: Homo sapiens, HS 578T (Breast Cancer), read-out: Inhibition% values at 10 μM concentration
Excerpt: as §1

BT-549 = test: NCI-60 antiproliferative screening, BT-549; format: cell-based; conditions: Homo sapiens, BT-549 (Breast Cancer), read-out: Inhibition% values at 10 μM concentration
Excerpt: as §1

## COc1cccc(-c2nc3c(c(-c4cccc(OC)c4)n2)CCN(C(=O)CCCCCCC(=O)NO)C3)c1 [Compound 8f, 8-(2,4-Bis(3-methoxyphenyl)-5,8-dihydropyrido [3,4-d]pyrimidin-7(6H)-yl)-N-hydroxy-8-oxooctanamide]
HDAC1
  pIC50: 6.51
RPMI-8226
  pIC50: 5.55
[1]
  number of cell lines with percent inhibitions > 80%: 56 cell lines
K-562
  inhibition at 10 µM: 90.2%
A549/ATCC
  inhibition at 10 µM: 87.7%
EKVX
  inhibition at 10 µM: 84.4%
HOP-62
  inhibition at 10 µM: 99.1%
NCI-H226
  inhibition at 10 µM: 93.3%
NCI-H23
  inhibition at 10 µM: 100%
NCI-H522
  inhibition at 10 µM: 69.1%
HCC-2998
  inhibition at 10 µM: 100%
KM12
  inhibition at 10 µM: 88.4%
SNB-75
  inhibition at 10 µM: 71%
M14
  inhibition at 10 µM: 90.5%
SK-MEL-5
  inhibition at 10 µM: 100%
UACC-257
  inhibition at 10 µM: 98.7%
UACC-62
  inhibition at 10 µM: 100%
OVCAR-3
  inhibition at 10 µM: 100%
OVCAR-4
  inhibition at 10 µM: 67.1%
OVCAR-8
  inhibition at 10 µM: 93.6%
786-0
  inhibition at 10 µM: 89.1%
SN12C
  inhibition at 10 µM: 100%
UO-31
  inhibition at 10 µM: 100%
MCF7
  inhibition at 10 µM: 92.1%
MDA-MB-231/ATCC
  inhibition at 10 µM: 100%
HS 578T
  inhibition at 10 µM: 97.8%
BT-549
  inhibition at 10 µM: 81.9%
other
  melting point: 117 to 118 °C
